Source: US20200078307A1, “POROUS SILICA PARTICLES FOR USE IN A COMPRESSED PHARMACEUTICAL DOSAGE FORM” (Nanologica AB, priority 2018, published 2020)
In brackets after ≈: the same amount, converted by molar mass. Like-named read-outs stand apart in the source and are kept apart here.

Experiments:
[1] = HPLC stability of melatonin during loading and storage; format: physicochemical; details: during loading and after storage at 4° C.
[2] = Release kinetics of melatonin, USP Apparatus 2 dissolution testing; format: physicochemical; details: after 20 minutes; 500 ml buffer pH 6.8, 50 rpm, 37° C., 5 mg melatonin
Protocol: The release kinetics of melatonin was monitored using a USP Apparatus 2 dissolution testing system. The release was performed in 500 ml buffer at pH 6.8 (reflecting the pH in the oral cavity, typically in the range of pH 6.7 to 7.3) at 50 rpm stirring rate and 37° C. The dose in the dissolution tests was equivalent to 5 mg of melatonin. Melatonin was bought from PureBulk, Inc. USA. The dosage form with melatonin was compared to reference product from CVS Health, USA using the technology mentioned in U.S. Pat. No. 9,381,190 Other ingredients in the formulation include Microcrystalline cellulose (MCC) and Low-Substituted Hydroxypropyl Cellulose (L-HPC) Mannitol and magnesium stearate.

[3] = cited from earlier work

| stability (HPLC) [1] | dissolution (melatonin released) [2] [%] | SMILES | solubility ([3]; in buffer at pH 6.8) [µg/mL] | solubility ([3]; in water) [µg/mL] |
| --- | --- | --- | --- | --- |
| no degradation | 93 | COc1ccc2[nH]cc(CCNC(C)=O)c2c1 [melatonin] | – | – |
| – | – | CCN(CC)CCNC(=O)c1cc(Cl)c(N)cc1OC [metoclopramide] | 10000 (≈ 33.4 mM) | > 6000 |
